From patent US8012944B2, “Method for treating cancer using IAP antisense oligomer and chemotherapeutic agent” (Pharmascience Inc., priority 2003, dated 2011)

Legend:
[1] = test system: subcutaneous H460 human non-small-cell lung tumor xenografts; assay: Systemic (i.p.) oligonucleotides with or without vinorelbine in H460 xenografts; assay type: in vivo, SCID-RAG2 mice; settings: for mean tumor size: day 24, control 0.75
Description: Initial systemic PS-oligonucleotide studies were designed without any chemotherapeutic agents. SCID-RAG2 mice were inoculated with H460 human lung carcinoma cells (s.c. shoulder injection of 10^6 cells) and treatments with G4 and F3 AS PS-oligonucleotides, as well as a scrambled control, were initiated three days after tumor inoculation. Nucleobase oligomer injections were administered i.p. at 12.5 mg/kg three times a week for three weeks. At the end of the treatment period, mean tumor sizes in the groups treated with either G4 or F3 AS oligonucleotides were ˜50% smaller than in the group treated with a scrambled control oligonucleotides (FIG. 15). The same treatment protocol was tested on female SCID-RAG2 mice inoculated orthotopically with MDA-MB-435/LCC6 human breast carcinoma cells. Two weeks after the last treatment (day 35) tumor volumes of mice treated with F3, C5 or G4 AS oligonucleotides were 70%, 60%, and 45%, respectively, smaller than vehicle controls (FIG. 16).
We conducted additional examination of the antitumor effects of G4 AS oligonucleotides in SCID-RAG2 mice bearing xenografts of H460 human non-small-cell lung tumors implanted subcutaneously. Saline-treated control tumors grew reproducibly to a size of 0.75 cm^3 within approximately 24 days (FIG. 17). Oligonucleotide treatments were initiated three days after tumor cell inoculation. G4 AS oligonucleotides (5 to 15 mg/kg) were administered using a treatment schedule of i.p. injections given once a day on days 3-7, 10-14, and 17-21. The treatment with 5 or 15 mg/kg G4 AS oligonucleotides greatly delayed tumor growth: on day 24 mean tumor sizes were 0.75, 0.45 and 0.29 cm^3 in control, 5 and 15 mg/kg treated groups, respectively (FIG. 18A). There was a dose-dependent inhibition of tumor growth. […] A dose of 15 mg/kg was selected for the future combination treatment regimens with anticancer drugs.
The human non-small cell lung cancer cell line (large cell type) NCI-H460 (H460) was obtained from ATCC and maintained in RPMI 1640 supplemented with 10% FCS at 37° C. in a humidified atmosphere containing 5% CO2. Cells were used in exponential growth phase, up to a maximum of 25 in vitro passages. Male SCID-RAG2 mice (7-9 weeks old, 23-26 g) were obtained from British Columbia Cancer Agency Joint Animal Facility breeding colony and kept in aseptic environments. A tumor model of NCI-H460 cells in SCID-RAG2 mice was established by subcutaneous implantation of 1×10^6 NCI-H460 cells on the back of mice.
Efficacy experiments were conducted in male RAG2 immunodeficient mice bearing NCI-H460 tumours or female RAG2 mice bearing LCC6 tumors. Treatments were commenced on day 3 after tumor inoculation. Saline (controls), G4 AS oligonucleotides (5 or 15 mg/kg), or G4 SC oligonucleotides (5 or 15 mg/kg) were administered i.p. daily for five doses a week over a three week regimen. Vinorelbine (VNB, 5 or 10 mg/kg) was administered i.v. via the tail vein, either alone or in combination with oligonucleotides, at day 3, 7, 11 and 17 after tumor inoculation. When oligonucleotides were administered in combination with VNB, the drug treatment was performed four hours after ODN treatment.
Mice were observed daily. Body weight measurements and signs of stress (e.g., lethargy, ruffled coat, ataxia) were used to detect possible toxicities. Animals with ulcerated tumor, or tumor volumes of 1 cm^3 or greater were killed. Digital caliper measurements of tumors were converted into mean tumor size (cm^3) using the formula: ½[length (cm)]×[width (cm)]^2. An average tumor size per mouse was used to calculate the group mean tumor size±SE (n=6 mice) from at least two independent experiments per group.

H460 cells = assay: H460 cell growth, viability or death (MTT assay); assay type: cell-based, human; settings: 1.2 μM
Description: Growth inhibition of […] cells was determined by the colorimetric MTT cell viability/proliferation assay. In brief, cells were treated with liposome-oligonucleotide complexes for 4.5 h, then incubated for another 48 h at 37° C. in medium without transfection reagent or oligonucleotides in the presence or absence of anticancer drugs. MTT (25 μg/well) was added to each well, and the plates incubated for 3 h at 37° C. Following the incubation step, the colored formazan product was dissolved by the addition of 200 μl DMSO. Plates were read using the microtiter plate reader (Dynex Technologies Inc., Chantilly, Va.) at a wavelength of 570 nm. The percentage of surviving cells in wells treated with oligonucleotides was normalized to untreated controls. All assays were performed in triplicate.

H460 tumors = assay: Histopathology and ubiquitin immunohistochemistry of H460 tumors; assay type: in vivo, SCID-RAG2 mice; settings: 15 mg/kg; day 21 or 24
Description: To evaluate whether XIAP AS oligonucleotide administration results in direct tumor cell kill, we examined the histology of tumors after treatment both for morphology and ubiquitin immunostaining (FIGS. 19A and 19B). At day 21 or 24 post-tumor inoculation, tumors treated with 15 mg/kg of G4 AS oligonucleotides, SC oligonucleotides, or saline control were excised, sectioned, and stained with hematoxylin and eosin.
The degradation of proteins is largely ubiquitin-proteasome-dependent; increased ubiquitin expression has been observed during apoptosis. Thus, we examined the ubiquitin expression in the tumors sections used for hematoxylin and eosin staining.
Mouse tumors were collected on day 21 or 24 post-tumor inoculation and treatment. One portion of the tumor tissue was fixed in formalin. Paraffin-embedded tissues were sectioned and subjected to gross histopathology using hematoxylin and eosin staining and immunohistochemistry for ubiquitin expression. The other portion of the tumor was homogenized in lysis buffer for western blot analysis (see above).

## GCTGAGTCTCCATATTGCC [G4 AS] (chemistry not given here)
[1]; 15 mg/kg i.p.
  tumor size as % of control mean tumor size: 39%
  mean tumor size: 0.29 cm^3
[1]; PS-oligonucleotides 12.5 mg/kg i.p. three times a week for three weeks, end of treatment
  mean tumor size smaller than scrambled control group: ~50%
[1]; 5 mg/kg i.p.
  mean tumor size: 0.45 cm^3
[1]; systemic, oligonucleotide 15 mg/kg i.p., VNB 5 or 10 mg/kg i.v.
  antitumor efficacy on H460 xenografts (in words): significant sequence-specific growth inhibitory effects
H460 cells; H460 cells
  cell death: 60%
H460 cells; MTT, 48 hours after transfection
  reduction of H460 cell growth relative to untreated control: 55%
H460 tumors
  tumor histology (hematoxylin and eosin): increased number of dead cells
